The source of these data is patent publication US8012463B2, “Coordination complex of diaminocyclohexaneplatinum(II) with block copolymer containing poly(carboxylic acid) segment and antitumor agent comprising the same” (Toudai TLO, Ltd., priority 2003, dated 2011).

Series [1] concerns mouse colon 26 (C-26) cell strain. Description: Cytotoxicity in vitro, growth inhibition by MTT method. It counts as cell-based. The note with it: C-26 cells. On the procedure: Growth inhibiting activities of free CDDP, CDDP micelle, DACH Pt micelle, mixtures of DACH Pt micelle and CDDP micelle at various mixing ratios (1/3, 1/1 and 3/1) against mouse colon 26 (C-26) cell strain were evaluated with MTT method. 5,000 cells were cultured in a 96 well-multiplate supplied with 50 μl of RPMI 1640 medium containing 10% fetal bovine serum. The cells were exposed to drugs for 48 and 72 hours. MTT solution was added, and 150 μl of a solution containing 10 wt % of sodium dodecylsulfate (SDS) supplemented with 0.01M HCl was added after 6 hours. Viability of cells was then measured based on optical density at 570 nm of formazan produced after 24 hours.
(Tetrazolium dyes change colour on reduction, which living cells bring about.)

In series [2] the test system is ascites sarcoma 180. The note with it: cited from earlier work.

Molecules are shown by their SMILES. Bounds are passed on as bounds.

In the case of `N.N.[Cl][Pt][Cl]` [Free CDDP, Cisplatin], the half-maximal inhibitory concentration (IC50) in series [1] (culture time 48 hours) stood at 1.5 mg/L; in series [1] (culture time 72 hours), 0.65 mg/L.
With `NC1CCCCC1N.O=C([O-])CC(=O)[O-].[Pt+2]` (centres unmarked) [Pt(malonato)-(dach)], in series [2] (in vivo), the “therapeutic index relative to Pt(oxalato)-(cis-dach)” value was “half or less”. Further, the “ED90 dose compared with Pt(oxalato)-(dach)” value in series [2] (ratio to Pt(oxalato)-(dach)) is recorded as at least 5 times.
Regarding `O=C1[O][Pt-2]2([NH2+]C3CCCC[C@H]3[NH2+]2)[O]C1=O` (some centres unmarked) [Pt(oxalato)-(dach)], the ED90 result in series [2] (experimental animals bearing ascites sarcoma 180) was “excellent ED90”.

Usually IC50 stands for the point on the concentration scale where inhibition reaches its midpoint.
